Entries after “also recorded” stand apart in the source; their conditions may differ. Like-named read-outs stand apart in the source and are kept apart here.
How the values were obtained:
HCT116 cells = experiment: MTT assay with or without antioxidants NAC or GSH; format: cell-based, human; settings: HCT116, MTT after 24 hours
Protocol: (§1) (A) HCT116 cells were treated with 40 μM 3-BP or NEO218 in the presence or absence of 1 mM NAC, 1 mM GSH, or 50 mM methyl-pyruvate (or sodium pyruvate, which produced similar outcomes). Cell viability was determined 24 hours later by MTT assay. (B) HCT116 cells were treated with 30 or 100 μM 3-BP or NEO218. After 30 minutes, cell lysates were prepared and analyzed for GAPDH activity. (C) Lysates from non-drug-treated MDA-MB-231 cells were mixed with 3-BP or NEO218 in the presence or absence of NAC or GSH at the concentrations mentioned in A. After 1 hour of incubation, GAPDH activity was determined. GAPDH activity in the absence of drug treatment was set at 100% (corresponding to 0.06 units/min×10^6 cells).
Tumor cells were treated with either NAC or GSH, in combination with NEO218 or 3-BP. HCT116 cells were treated with increasing concentrations of NEO218 and 3-BP (individually), in the presence or absence of 5 mM NAC or 1 mM GSH. After 24 hours, cell viability was determined by MTT assay.

[1] = tested on: HCT116, LN229, T98G, U251, MCF7, T47D, MDA-MB-231, MDA-MB-468, BTM-12, ME16C cells; experiment: 24-hour MTT assay in 10 cell lines with MCT-1 levels (FIGS. 16A-16C); format: cell-based; settings: Homo sapiens, read-out: IC50 (concentration of drug that kills 50% of the cell population)
Description: The following established human cell lines were used: (A) HCT116 colon carcinoma; (B) LN229, T98G, and U251 glioblastoma; (C) MCF7, MDA-MB-231, MDA-MB-468, BTM-12, and T47D breast carcinoma; and ME16C normal mammary gland epithelium cells (immortalized with telomerase). […] Bars with error bars represent ≥3 measurements, whereas graphs without error bars show the average of two independent measurements. The middle panels show MCT-1 protein levels for each cell line, as determined by Western blot with actin as the loading control.
Methylthiazoletetrazolium (MTT) assays were performed as described earlier.
Because it was reported that the cytotoxic effects of 3-BP in vitro depend on the presence of MCT-1, we began our study by characterizing MCT-1 expression levels along with cytotoxicity of 3-BP in the various tumor cell lines to be used in our study. We included one colon carcinoma cell line (HCT116), three glioblastoma cell lines (LN229, T98G, U251), four breast cancer cell lines (MCF7, T47D, MDA-MB-231, MDA-MB-468), one culture of primary breast cancer cells (BTM-12), and an established line of normal breast epithelial cells (ME16C). For all 10 cell lines, we established IC50 (concentration of drug that kills 50% of the cell population) by MTT assay, along with MCT-1 protein levels by Western blot analysis. As summarized in FIGS. 16A-16C, MCT-1 levels varied greatly in the different cells, and so did their IC50 values.

[2] = tested on: HCT116 colon cancer cells; experiment: MTT assay with pan-caspase inhibitor zVAD pre-treatment; format: cell-based, human; settings: 50 μM zVAD 1 hour before drug, MTT after 24 hours
Protocol: (A) FACS analysis of HCT116 cells after treatment for 2, 4, or 8 hours with vehicle, 30 μM 3-BP, 30 μM NEO218, or 1 μM staurosporine (STS). […] (B) Western blot analysis of apoptotic markers. In the top section, MDA-MB-231 cells were treated with 30 μM NEO218 or 1 μM STS for various time points. In the lower section, HCT116 cells were treated with the indicated concentrations of 3-BP, NEO218, or STS for 16 hours. In all cases cell lysates were prepared and analyzed for the well-established apoptotic markers cleaved PARP, cleaved (i.e., activated) caspase 7 (cl. C-7), and phosphorylated (i.e., active) H2AX. Actin was used as a loading control. (C) HCT116 cells were pretreated with 50 μM Z-VAD-FMK for one hour, followed by the addition of increasing concentrations of 3-BP or NEO218. Cell viability was determined by MTT assay 24 hours later. Data points are averages from n=3.
The capacity for NEO218 to induce apoptosis was further evaluated in a series of experiments using an MTT assay. The apoptosis-blocker zVAD (z-VAD-FMK), an agent that acts as a pan-caspase inhibitor, was used. HCT116 colon cancer cells were treated for 1 hour with or without 50 μM zVAD, followed by increasing concentrations of NEO218 or 3-BP. Twenty-four hours thereafter, cell viability was determined by MTT assay.

GAPDH = GAPDH (Homo sapiens, UniProt P04406); experiment: GAPDH activity assay, drugs added to cell lysates (cell-free); format: biochemical; design: endogenous in cells; host or cells: MDA-MB-231 cell lysate; settings: for inhibition of GAPDH enzyme activity: cell lysates incubated with drug for 1 hour; for effect of NAC or GSH on drug-induced inhibition of GAPDH activity: cell lysates, 1 mM NAC or GSH
Sequence of GAPDH (P04406 whole entry): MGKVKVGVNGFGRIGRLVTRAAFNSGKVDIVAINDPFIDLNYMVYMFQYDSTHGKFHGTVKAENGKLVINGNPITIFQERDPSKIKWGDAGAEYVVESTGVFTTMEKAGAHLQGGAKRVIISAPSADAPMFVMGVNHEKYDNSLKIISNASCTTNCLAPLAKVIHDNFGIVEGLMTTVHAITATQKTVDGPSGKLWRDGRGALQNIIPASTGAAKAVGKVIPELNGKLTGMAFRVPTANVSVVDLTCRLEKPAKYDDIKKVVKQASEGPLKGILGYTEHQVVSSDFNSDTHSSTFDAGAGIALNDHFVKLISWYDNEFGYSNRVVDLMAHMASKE
Protocol: as §1
The capacity of NEO218 to inhibit the enzymatic function of GAPDH in a cell-free system was investigated. Cell lysates were incubated with NEO218 and 3-BP (individually) for 1 hour, and enzymatic activity of GAPDH (glyceraldehyde-3-phosphate dehydrogenase) was determined. Increasing concentrations of NEO218 and 3-BP were applied. Separately, 50 μM NEO218 and 3-BP, respectively, were applied together with 1 mM NAC or GSH. The enzymatic activity of GAPDH was determined with the use of a commercially available GAPDH activity assay kit.
Enzymatic activity of GAPDH in vitro was measured with the Colorimetric GAPDH Assay kit (ScienCell Research Laboratories, Carlsbad, Calif.). This assay is based on the oxidization of β-NADH to β-NAD in the presence of 3-phosphoglyceric acid, ATP and GAPDH. GAPDH activity is determined by assaying the rate of NADH oxidation, which is proportional to the reduction in absorbance at 340 nm over time (ΔA340 nm/min). One hundred thousand cells were lysed in 100 μL cell lysis buffer and incubated with the above components. Changes in absorbance over 10 minutes were calculated and normalized to untreated controls. Data are presented as percentage of controls. Two types of drug treatments were performed: in one approach, drugs were added to proliferating cells for 30 minutes under regular cell culture conditions; in the other approach, drugs were added to cell lysates for 1 hour at 4° C.

| SMILES | effect of antioxidants NAC or GSH on drug-induced cell death (HCT116 cells) | IC50 ([1]; all 10 cell lines, irrespective of MCT-1 expression) | effect of zVAD pre-treatment on drug-induced cell death [2] | inhibition of GAPDH enzyme activity (GAPDH) | effect of NAC or GSH on drug-induced inhibition of GAPDH activity (GAPDH) | IC50 ([1]; 24 h, cells with high MCT-1 levels (HCT116, U251, ME16C, MDA-MB-468), 24 hours) | IC50 ([1]; 24 h, cells with lesser MCT-1 levels, 24 hours) |
| --- | --- | --- | --- | --- | --- | --- | --- |
| C=C(C)[C@@H]1CC=C(COC(=O)C(=O)CBr)CC1 [NEO218, 3-bromo-2-oxo-propionic acid 4-isopropenyl-cyclohex-1-enylmethyl ester] | antioxidant treatment similarly protected cells; also recorded: drug-induced cell death was completely prevented | 15 to 25 µM | did not affect the cytotoxic IC50; also recorded: did not prevent induction of cell death | potent inhibition of GAPDH enzyme activity; also recorded: potently decreased enzymatic GAPDH activity | effectively prevented the drug-induced inhibition of GAPDH activity; also recorded: completely prevented | – | – |
| O=C(O)C(=O)CBr [3-BP, 3-bromopyruvate] | profound protection; also recorded: drug-induced cell death was completely prevented | – | did not affect the cytotoxic IC50; also recorded: did not prevent induction of cell death | potent inhibition of GAPDH enzyme activity; also recorded: potently decreased enzymatic GAPDH activity | effectively prevented the drug-induced inhibition of GAPDH activity; also recorded: completely prevented | 15 to 60 µM | 150 to 300 µM |
